Consider one compound from patent US20180228743A1, “COMPOUNDS AND METHODS OF PROMOTING MYELINATION” (Case Western Reserve University, priority 2016, published 2018).

Counter-ions that a name gives are not always drawn.

The test system of one series is EpiSC-derived OPCs. Kind of series: High-throughput screening of 3,000 bioactive small molecules for MBP+ oligodendrocyte formation from OPCs. It counts as cell-based, mouse. The note with it: 2 μM, 72 h. The source says:
Plates were imaged on the Operetta High Content Imaging and Analysis system (PerkinElmer) and a set of 6 fields captured from each well resulting in an average of 1200 cells being scored per well. Analysis (PerkinElmer Harmony and Columbus software) began by identifying intact nuclei stained by DAPI; that is, those traced nuclei that were larger than 300 μm^2 in surface area. Each traced nucleus region was then expanded by 50% and cross-referenced with the […] (MBP) stain to identify oligodendrocyte nuclei, and from this the percentage of oligodendrocytes was calculated. In some experiments, the total process length of MBP+ oligodendrocytes was calculated as previously described.
EpiSC-derived OPCs were grown and expanded in poly-ornithine and laminin-coated flasks before harvesting for plating. Cells were dispensed in differentiation media supplemented with Noggin (R&D Systems; 100 ng/ml), Neurotrophin 3 (R&D Systems; 10 ng/ml), cAMP (Sigma; 50 μM), and IGF-1 (R&D Systems; 100 ng/ml)) using a Biotek EL406 Microplate Washer Dispenser (Biotek) equipped with 5 μL dispense cassette (Biotek), into poly-D-lysine/laminin (Sigma, L2020; 4 μg/ml)-coated sterile, 384-well, CellCarrier ultra plates (PerkinElmer), to a final density of 12,500 cells per well and allowed to attach for 45 min before addition of drug. A 3 mM stock of bioactive compound library in dimethylsulphoxide (DMSO) were prepared in an Abgene storage 384-well plate (ThermoFisher Scientific; AB1055). These were added to assay plates using a 50 nL solid pin tool attached to Janus automated workstation (Perkin Elmer), resulting in a final screening concentration of 2 μM. Cells were incubated at 37° C. for 1 hour and then T3 (Sigma; 40 ng/ml) was added to all wells except negative controls, to which FGF (20 ng/ml) was added instead. Negative controls and T3-alone were included in each assay plate. After incubation at 37° C. for 72 h, cells were fixed, washed and stained similar to 96-well OPC assay protocol, although all the washing steps were performed using a Biotek EL406 Microplate Washer Dispenser (Biotek) equipped with a 96-well aspiration manifold. Cells were stained with DAPI (Sigma; 1 μg/ml) and MBP antibody (Abcam, ab7349; 1:100). Plates were imaged on the Operetta High Content Imaging and Analysis system (PerkinElmer) and a set of 4 fields captured from each well resulting in an average of 700 cells being scored per well. Analysis was performed as in High-Content Imaging and Analysis, above. All plates for the primary screen were processed and analyzed simultaneously to minimize variability. Molecules causing more than 20% reduction in nuclear count relative to DMSO control wells were removed from consideration, and hits were called on the basis of largest fold-increase in percentage of MBP+ oligodendrocytes relative to DMSO controls within the same plate.

For another series, the system named is mouse brain. Kind of series: Analysis of mouse brain sterol levels (GC/MS). It counts as in vivo. The note with it: miconazole 10 mg per kg, ifenprodil 10 mg per kg, tamoxifen 2 mg per kg; 3 days intraperitoneal dosing.
The test system of a further series is LPC-lesioned spinal cord. Kind of series: LPC focal demyelination of spinal cord, remyelination histology. In kind it is in vivo, mouse. The note with it: ifenprodil 10 mg per kg, tamoxifen 2 mg per kg, daily intraperitoneal, 8 days from day 4 after lesion.
Series [1] has as its system human glioma cells (GBM528). Kind of series: GC/MS sterol profiling in human glioma cell line. The settings on record: 24 h. It counts as cell-based.
The subject of series [2] is human induced pluripotent stem cell-derived cortical spheroids. Nature of the series: GC/MS sterol profiling in human cortical spheroids. In kind it is cell-based. The settings on record: 2 μM, 24 h.
For series [3] the following is noted: mouse; cited from earlier work.

Protocol for mouse brain: Mice were anaesthetized with isoflurane and perfused with phosphate buffered saline to remove blood from the brain. Brains were collected and flash frozen using liquid nitrogen. The samples were pulverized and 50-100 milligrams of tissue were collected for further processing. A modified Folch protocol was used for extraction of sterols. Briefly, samples were resuspended in a 2:1 chloroform/methanol mixture and homogenized. Cell debris was removed by centrifugation at 4000 g for 10 min. The solution was dried under air and resuspended in hexane with a cholesterol-D7 standard and dried again. Lipids were derivatized with 70 al of bis(trimethylsilyl)trifluoroacetamide; 2 μls were injected and analyzed by GC/MS as described above.

Turning to `CC(C(O)c1ccc(O)cc1)N1CCC(Cc2ccccc2)CC1` (centres unmarked) [lfenprodil Tartrate], the results for the “cell viability (% relative to DMS0)” value in the series with EpiSC-derived OPCs and in the series on EpiSC-derived OPCs (listed as lfenprodil tartrate) were 103.79% and 106.02%, respectively. For the same compound, the fold induction at 2 µM in the series with EpiSC-derived OPCs (Mus musculus, relative to DMSO controls of the same plate, read-out: fold-change in % MBP + oligodendrocytes) came out at 4.89. In addition, the “accumulation of 8,9-unsaturated sterols in brain” value in the series with mouse brain was “induced significant accumulation of 8,9-unsaturated sterols in the brain”. Besides, the “remyelination of LPC lesion” value in the series on LPC-lesioned spinal cord is on record as “remyelination was widespread throughout the lesion”. In series [1], the “sterol intermediate accumulation in human glioma cell line” value is recorded as “caused accumulation of the expected sterol intermediates”. Also, the “8,9-unsaturated sterol accumulation in human cortical spheroids” value in series [2] was “led to 8,9-unsaturated sterol accumulation”. The “blood brain barrier penetration” value in series [3] is on record as “known to cross the mouse blood brain barrier”.
